Assay results taken from US20170066780A1, “INHIBITORS OF EZH2” (Eli Lilly and Company, priority 2015, published 2017).

Columns and labels:
[1] = target: WT 5-mer EZH2 (PRC2 complex) (Homo sapiens, UniProt Q15910); experiment: EZH2 WT 384-well biochemical assay (SPA, 3H-SAM)
Experimental: (§2) The purpose of this assay is to measure the compound effect on the catalytic activity of EZH2 WT/Y641N in the context of the PRC2 complex.
(§3) Express FLAG-tagged EZH2 or EZH2 Y641N as the PRC2 5-membered (5-mer) complex consisting of EZH2, EED, SUZ12, RBBP4 and AEBP proteins using a baculovirus expression system in Sf9 cells, and purify using FLAG® Affinity Purification (Sigma-Aldrich).
(§4) Place 20 μL 100% DMSO in dilution wells. Perform 3× serial dilutions by transferring 10 μL from one well to the next. […] In the WT assay, dispense 15 μL of the enzyme/tri-methyl H3 co-activator peptide mix into the assay plate, followed by 5 μL of the biotin H3 peptide substrate/^3H-SAM mix. Seal the plates and shake for 2 hr at RT. […] Plot normalized data and render curves using […] ® Condoseo as % inhibition (y axis) vs. log compound concentration (x-axis), and determine IC50 values using a 4-parameter nonlinear logistic fitting algorithm.

[2] = tested on: cell tri-methylated H3K27 in MDA MB-231; experiment: H3K27Me3 cell-based ELISA, MDA MB-231; settings: Homo sapiens
[3] = target: mut 5-mer EZH2 (EZH2 Y641N, PRC2 complex) (Homo sapiens, UniProt Q15910, Y641N); experiment: EZH2 Y641N mut 384-well biochemical assay (SPA, 3H-SAM)
Chain of mut 5-mer EZH2 (EZH2 Y641N, PRC2 complex) (Q15910 whole entry Y641N): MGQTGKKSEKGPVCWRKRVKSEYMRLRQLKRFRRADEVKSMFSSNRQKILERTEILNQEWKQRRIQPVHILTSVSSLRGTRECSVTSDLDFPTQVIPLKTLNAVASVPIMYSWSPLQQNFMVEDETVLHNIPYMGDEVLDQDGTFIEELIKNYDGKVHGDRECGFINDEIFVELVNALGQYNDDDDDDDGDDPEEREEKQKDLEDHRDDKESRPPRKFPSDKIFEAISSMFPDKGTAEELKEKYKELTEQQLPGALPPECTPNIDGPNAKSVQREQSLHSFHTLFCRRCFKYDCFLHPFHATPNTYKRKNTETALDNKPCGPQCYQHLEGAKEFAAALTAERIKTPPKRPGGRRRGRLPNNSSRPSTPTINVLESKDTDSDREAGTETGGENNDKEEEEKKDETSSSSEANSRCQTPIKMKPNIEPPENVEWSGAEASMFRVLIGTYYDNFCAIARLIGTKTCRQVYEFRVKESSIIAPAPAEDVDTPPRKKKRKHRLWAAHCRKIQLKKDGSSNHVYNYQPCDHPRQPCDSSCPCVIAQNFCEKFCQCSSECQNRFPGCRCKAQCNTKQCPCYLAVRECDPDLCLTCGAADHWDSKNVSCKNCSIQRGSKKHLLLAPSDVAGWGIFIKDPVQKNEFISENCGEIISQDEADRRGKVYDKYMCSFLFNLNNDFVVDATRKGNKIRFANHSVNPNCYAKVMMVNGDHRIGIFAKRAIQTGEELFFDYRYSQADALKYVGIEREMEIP
Chain of mut 5-mer EZH2 (EZH2 Y641N, PRC2 complex) (O75530 whole entry partner): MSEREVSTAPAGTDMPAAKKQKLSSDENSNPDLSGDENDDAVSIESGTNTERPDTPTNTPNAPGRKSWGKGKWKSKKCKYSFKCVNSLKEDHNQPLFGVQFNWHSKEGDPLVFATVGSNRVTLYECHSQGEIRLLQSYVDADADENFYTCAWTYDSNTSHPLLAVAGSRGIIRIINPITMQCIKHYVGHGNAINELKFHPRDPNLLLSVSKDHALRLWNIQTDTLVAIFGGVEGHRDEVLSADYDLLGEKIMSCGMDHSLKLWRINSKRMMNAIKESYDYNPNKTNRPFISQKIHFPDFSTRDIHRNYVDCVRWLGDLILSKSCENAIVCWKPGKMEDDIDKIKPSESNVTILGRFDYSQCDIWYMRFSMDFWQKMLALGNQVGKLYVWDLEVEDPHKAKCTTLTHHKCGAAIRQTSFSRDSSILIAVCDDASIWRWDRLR
Chain of mut 5-mer EZH2 (EZH2 Y641N, PRC2 complex) (Q15022 whole entry partner): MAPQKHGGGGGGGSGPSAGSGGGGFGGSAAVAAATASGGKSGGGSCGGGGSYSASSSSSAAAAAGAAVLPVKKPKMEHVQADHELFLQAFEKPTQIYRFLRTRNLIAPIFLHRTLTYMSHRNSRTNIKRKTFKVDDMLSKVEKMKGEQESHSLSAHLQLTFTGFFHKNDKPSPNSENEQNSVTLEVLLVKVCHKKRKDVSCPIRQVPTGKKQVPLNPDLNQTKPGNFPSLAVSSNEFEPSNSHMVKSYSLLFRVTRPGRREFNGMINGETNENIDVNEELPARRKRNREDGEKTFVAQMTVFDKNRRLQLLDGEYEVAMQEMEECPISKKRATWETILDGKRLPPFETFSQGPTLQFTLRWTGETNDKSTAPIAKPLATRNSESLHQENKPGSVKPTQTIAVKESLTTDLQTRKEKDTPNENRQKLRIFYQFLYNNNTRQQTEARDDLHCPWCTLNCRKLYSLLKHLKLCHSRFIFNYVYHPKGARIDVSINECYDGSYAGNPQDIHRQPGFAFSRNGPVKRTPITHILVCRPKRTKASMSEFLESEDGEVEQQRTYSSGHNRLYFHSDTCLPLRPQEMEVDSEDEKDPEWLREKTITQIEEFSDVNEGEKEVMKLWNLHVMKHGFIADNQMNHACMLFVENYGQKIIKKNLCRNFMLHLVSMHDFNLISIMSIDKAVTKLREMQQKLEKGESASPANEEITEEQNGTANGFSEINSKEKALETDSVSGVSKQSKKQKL
Chain of mut 5-mer EZH2 (EZH2 Y641N, PRC2 complex) (Q09028 whole entry partner): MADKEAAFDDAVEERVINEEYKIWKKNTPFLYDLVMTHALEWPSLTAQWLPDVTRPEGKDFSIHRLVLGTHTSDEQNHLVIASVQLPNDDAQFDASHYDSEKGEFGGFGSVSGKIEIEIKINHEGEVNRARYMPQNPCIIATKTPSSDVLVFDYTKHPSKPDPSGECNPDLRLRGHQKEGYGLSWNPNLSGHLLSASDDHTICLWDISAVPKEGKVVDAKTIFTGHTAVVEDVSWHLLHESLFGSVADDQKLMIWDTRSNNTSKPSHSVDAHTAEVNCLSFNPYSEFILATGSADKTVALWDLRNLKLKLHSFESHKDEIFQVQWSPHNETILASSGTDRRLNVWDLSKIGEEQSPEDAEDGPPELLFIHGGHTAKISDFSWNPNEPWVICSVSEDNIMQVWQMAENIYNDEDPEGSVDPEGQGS
Chain of mut 5-mer EZH2 (EZH2 Y641N, PRC2 complex) (Q6ZN18 whole entry partner): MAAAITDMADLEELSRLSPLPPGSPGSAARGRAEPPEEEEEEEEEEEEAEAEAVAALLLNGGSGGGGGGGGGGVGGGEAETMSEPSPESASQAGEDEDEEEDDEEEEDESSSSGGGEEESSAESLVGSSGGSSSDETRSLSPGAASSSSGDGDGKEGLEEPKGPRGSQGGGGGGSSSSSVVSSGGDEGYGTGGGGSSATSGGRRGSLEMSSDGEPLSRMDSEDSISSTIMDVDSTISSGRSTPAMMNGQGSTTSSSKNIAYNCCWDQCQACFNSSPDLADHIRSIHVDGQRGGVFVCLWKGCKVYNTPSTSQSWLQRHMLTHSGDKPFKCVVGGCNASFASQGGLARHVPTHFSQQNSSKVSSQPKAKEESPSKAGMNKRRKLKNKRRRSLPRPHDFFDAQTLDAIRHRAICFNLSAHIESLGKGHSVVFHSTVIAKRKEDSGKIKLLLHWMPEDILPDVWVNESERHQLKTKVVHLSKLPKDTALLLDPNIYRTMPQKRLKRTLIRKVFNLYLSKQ
Experimental: as §2, §3, §4

A2780 tumor = experiment: A2780 xenograft model, tumor growth; format: in vivo, athymic nude mice
Experimental: The effect of Example 38 compared to ovarian cancer SoC carboplatin plus paclitaxel is tested in vivo using an A2780 xenograft model Implant 2 million A2780 cells in 50% MATRIGEL® subcutaneously into the right hind flank of 10 athymic nude mice (Envigo RMS, Inc., Indianapolis, Ind.) per group. Begin treatment when tumors volumes reach 100-150 mm^3. Pretreat animals for 5 days with Example 38 followed by co-administration of Example 38 and SoC for at least 23 additional days or until vehicle tumor volumes reach 2000 mm^3. Formulate Example 38 in 1% HEC/0.25% TWEEN® 80/0.05% Antifoam and administer at 50 mpk twice a day (BID) by oral gavage (p.o.). Formulate carboplatin (APP Pharmaceuticals NDC 63323-172-60) in phosphate buffered saline (PBS) and administer at 60 mpk very 2 weeks (Q14D) by intraperitoneal (i.p.) injection. Formulate paclitaxel (Hospira, Inc NDC 61703-342-50) in PBS and administer at 10 mpk Q14D by intravenous (IV) injection. Measure tumor growth inhibition as ΔT/C (%), calculated as the mean of individual animal [(tumor volume at Example 38 treatment day 28 minus tumor volume at day 0), divided by (tumor volume at vehicle treatment day 28 minus tumor volume at day 0)], multiplied by 100. Table 2 summarizes the results of the effects of Example 38 and ovarian cancer SoC on A2780 tumor growth on day 28 of treatment.

COV-434 = experiment: Ovarian cancer cell line proliferation assay (CellTiter-Glo); format: cell-based; settings: COV434, 240 h, 7- or 10-day assay
Experimental: (§1) Test ovarian cancer cell lines for response to Example 1 or Example 38 in a 7- or 10-day proliferation assay. Optimize each cell line for cell number and splitting schedule which maximizes log phase growth in 96-well format during the 7 or 10-day period. Plate cells in a 96-well black, clear bottom, poly-D-lysine-coated 96-well plate (BD BioSciences; BD BIOCOAT™ Cellware, Poly-Lysine, Cat. #354640) on day 0 in a total volume of 90 μL cell culture media and incubate at 37° C./5% CO2 for 18-24 hrs. On day 1, prepare a compound dilution plate by the addition of 150 μL media containing 2% dimethyl sulfoxide (DMSO; Sigma-Aldrich Cat. #D2438) to columns 3-12 of a 96-well clear flat bottom plate (CORNING® COSTAR® cell culture plate Cat #3596). Prepare 10 mM stocks of Example 1 or Example 38 in 100% DMSO, and further dilute to a working concentration of 200 μM in cell culture media. Add 225 μL of Example 1 or Example 38 to column 2 of the compound dilution plate, and prepare 1:3 10-point serial dilutions of test compound with columns 3 through 12. Add 10 μL of serially diluted compound to cell plates, giving a final test compound concentration range of 1 nM to 20 μM and a final concentration of DMSO of 0.2%. At the end of the 7- or 10-day assay period, subject cells to the CELLTITER-GLO® Luminescent Cell Viability Assay (Promega, Cat. #G7570) as follows: 1) Thaw the CELLTITER-GLO® buffer and equilibrate to room temperature; 2) Equilibrate the lyophilized CELLTITER-GLO® substrate to room temperature; 3) Transfer CELLTITER-GLO® buffer to substrate bottle to form the CELLTITER-GLO® reagent; 4) Equilibrate cell plates to room temperature; 5) For adherent cells only—remove medium from cell plates; 6) Add 25 μL CELLTITER-GLO® reagent to each well; 7) Let plates incubate an additional 20-30 min at room temperature; 8) Read luminescence using the Perkin Elmer EnVision 2104 Multi Detection Microplate Reader.

A2780 = experiment: as above; format: cell-based; settings: Homo sapiens, 240 h, 7- or 10-day assay
Experimental: as §1

HeyA8 = experiment: as above; format: cell-based; settings: HEY A8, 240 h, 7- or 10-day assay
Experimental: as §1

TOV-112D = experiment: as above; format: cell-based; settings: Homo sapiens, TOV112D, 240 h, 7- or 10-day assay
Experimental: as §1

OVCAR3 = experiment: as above; format: cell-based; settings: Homo sapiens, OVCAR-3, 240 h, 7- or 10-day assay
Experimental: as §1

SKOV3 = experiment: as above; format: cell-based; settings: Homo sapiens, SK-OV-3, 240 h, 7- or 10-day assay
Experimental: as §1

TOV-21G = experiment: as above; format: cell-based; settings: Homo sapiens, TOV21G, 240 h, 7- or 10-day assay
Experimental: as §1

HEC59 = experiment: as above; format: cell-based; settings: 240 h, 7- or 10-day assay
Experimental: as §1

Caov-3 = experiment: as above; format: cell-based; settings: Homo sapiens, 240 h, 7- or 10-day assay
Experimental: as §1

Chain of WT 5-mer EZH2 (PRC2 complex) (Q15910 whole entry): as the sequence (Q15910 whole entry Y641N) above, with N641Y counted along it
Chain of WT 5-mer EZH2 (PRC2 complex) (O75530 whole entry partner): as the sequence (O75530 whole entry partner) above
Chain of WT 5-mer EZH2 (PRC2 complex) (Q15022 whole entry partner): as the sequence (Q15022 whole entry partner) above
Chain of WT 5-mer EZH2 (PRC2 complex) (Q09028 whole entry partner): as the sequence (Q09028 whole entry partner) above
Chain of WT 5-mer EZH2 (PRC2 complex) (Q6ZN18 whole entry partner): as the sequence (Q6ZN18 whole entry partner) above

Row | SMILES | IC50 [1] [µM] | inhibition of the methyltransferase activity of EZH2 (in words) ([1]; recombinant WT/mut EZH2 in the context of the PRC2 complex) | IC50 [2] [µM] | IC50 [3] [µM] | ΔT/C (%) (A2780 tumor; A2780 tumor growth, dosing day 28, 50 mpk BID p.o., p < 0.001) | effect on A2780 tumor growth (in words) (A2780 tumor; A2780 xenograft, day 28 of treatment) | IC50 (COV-434) [µM] | IC50 (A2780) [µM] | IC50 (HeyA8) [µM] | IC50 (TOV-112D) [µM] | IC50 (OVCAR3) [µM] | IC50 (SKOV3) [µM] | IC50 (TOV-21G) [µM] | IC50 (HEC59) [µM] | IC50 (Caov-3) [µM]
1 | COC1CN([C@H]2CC[C@H]([C@@H](C)c3sc4c(c3C)C(=O)N(Cc3c(C)cc(C)[nH]c3=O)CC4)CC2)C1 [Example 1, 5-[(4,6-Dimethyl-2-oxo-1,2-dihydropyridin-3-yl)methyl]-2-{(1R)-1-[trans-4-(3-methoxyazetidin-1-yl)cyclohexyl]ethyl}-3-methyl-6,7-dihydrothieno[3,2-c]pyridin-4(5H)-one] | 0.00206 ± 0.0019 | demonstrate inhibition | 0.0192 ± 0.00155 | 0.00211 ± 0.00058 |  |  |  |  |  |  |  |  |  |  | 
2 | COC1CN([C@H]2CC[C@H]([C@@H](C)c3sc4c(c3C)C(=O)N(Cc3c(C)cc(C)[nH]c3=O)CCC4)CC2)C1 [Example 38, 5-[(4,6-Dimethyl-2-oxo-1,2-dihydropyridin-3-yl)methyl]-2-{(1R)-1-[trans-4-(3-methoxyazetidin-1-yl)cyclohexyl]ethyl}-3-methyl-5,6,7,8-tetrahydro-4H-thieno[3,2-c]azepin-4-one] |  |  |  |  | 10.5 | significant inhibition | 0.02 | 0.2 | > 20 | 0.2 | 8.6 | > 20 | 0.1 | > 20 | 8
